The values below come from patent US7608619B2, “Substituted oxazole compounds with analgesic activity” (Gruenenthal GmbH, priority 2005, dated 2009).

T1 sequence (P35372 whole entry): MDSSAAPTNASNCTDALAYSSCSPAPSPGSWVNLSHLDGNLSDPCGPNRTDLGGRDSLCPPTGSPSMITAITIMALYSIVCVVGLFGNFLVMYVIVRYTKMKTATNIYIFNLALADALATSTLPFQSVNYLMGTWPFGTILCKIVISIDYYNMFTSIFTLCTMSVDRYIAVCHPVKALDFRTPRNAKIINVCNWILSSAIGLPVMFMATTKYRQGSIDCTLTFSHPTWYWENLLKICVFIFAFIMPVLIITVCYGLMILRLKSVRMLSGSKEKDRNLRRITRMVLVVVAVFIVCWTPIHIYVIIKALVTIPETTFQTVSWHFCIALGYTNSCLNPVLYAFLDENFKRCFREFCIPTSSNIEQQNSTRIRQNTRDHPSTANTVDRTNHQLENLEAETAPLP

One test addresses T1, human μ-opiate receptor (Homo sapiens, UniProt P35372).
T1 construct: purchased Nen company, Zaventem, Belgium RB-HOM; host or cells: CHO-K1 cells (membrane preparation)
Nature of the test: Affinity for the human μ-opiate receptor ([3H]-naloxone displacement, SPA, CHO-K1 membrane preparation). The conditions noted are these: test substance 1 μmole/l; displacement of 1 nmole/l [3H]-naloxone; percentage inhibition of the specific binding. A digest of the protocol:
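[3H]-naloxone (1 nmol/l) displacement by SPA with WGA beads, using membranes of CHO-K1 cells expressing the receptor, in 50 mmol/l Tris-HCl with 0.05% azide and 0.06% BSA; 90 min at room temperature. Non-specific binding defined with 25 μmol/l naloxone. Value is % inhibition of specific binding at 1 μmol/l test compound.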
With `CN(CCc1ccccc1)c1oc(C(CC2CCC(C(c3ccc(F)cc3)N(C)C)CC2)N(C)c2ccccc2)nc1Cc1ccccc1` (stereo not shown) [compound 102, {4-benzyl-2-[2-{4-[dimethylamino-(4-fluorophenyl)-methyl]-cyclohexyl}-1-(methylphenylamine)-ethyl]-oxazol-5-yl}-methylphenethylamine], the “μ-opioid receptor, % inhibition [1 μM]” value came out at 77%.

The test is the same for the next values; noted with them: test substance 1 μmole/l; displacement of 1 nmole/l [3H]-naloxone; percentage inhibition of the specific binding; read-out: μ-opioid receptor, % inhibition [1 μM].
In the case of `CC1CCN(c2oc(C(CC3CCC(C(c4ccc(F)cc4)N(C)C)CC3)N3CCCCC3)nc2Cc2ccccc2)CC1` (stereo not shown) [compound 65, [(4-{2-[4-benzyl-5-(4-methylpiperidin-1-yl)-oxazol-2-yl]-2-piperidin-1-yl-ethyl}-cyclohexyl)-(4-fluorophenyl)-methyl]-dimethylamine], the inhibition at 1 µM stood at 61%.
The same measure, in the same setting: next, `CCN(CC)C(c1nc(Cc2ccccc2)c(N2CCN(c3ccccc3)CC2)o1)C1CCC(C(c2cccs2)N(C)C)CC1` (stereo not shown) [compound 31, {[4-benzyl-5-(4-phenylpiperazin-1-yl)-oxazol-2-yl]-[4-(dimethylamino-thiophen-2-yl-methyl)-cyclohexyl]-methyl}-diethylamine]: 62%; `CCN(CC)c1oc(C(CC2CCC(C(c3ccc(Cl)cc3)N(C)C)CC2)N2CCN(Cc3ccccc3)CC2)nc1Cc1ccccc1` (stereo not shown) [compound 94, [4-benzyl-2-(1-(4-benzylpiperazin-1-yl)-2-{4-[(4-chlorophenyl)-dimethylaminomethyl]-cyclohexyl}-ethyl)-oxazol-5-yl]-diethylamine]: 74%; `CC1CCCN(c2oc(C(C3CCC(C(c4ccc(F)cc4)N(C)C)CC3)N3CCCCC3)nc2Cc2ccccc2)C1` (stereo not shown) [compound 33, [(4-{[4-benzyl-5-(3-methylpiperidin-1-yl)-oxazol-2-yl]-piperidin-1-yl-methyl}-cyclohexyl)-(4-fluorophenyl)-methyl]-dimethylamine]: 65%.
Still for that read-out and setting: next, `CCN(CC)C(CC1CCC(C(c2cccs2)N(C)C)CC1)c1nc(Cc2ccccc2)c(N2CCSCC2)o1` (stereo not shown) [compound 115, {1-(4-benzyl-5-thiomorpholin-4-yl-oxazol-2-yl)-2-[4-(dimethylamino-thiophen-2-yl-methyl)-cyclohexyl]-ethyl}-diethylamine]: 93%; `CCN(CC)C(CC1CCC(C(c2ccc(Cl)cc2)N(C)C)CC1)c1nc(Cc2ccccc2)c(N(C)Cc2ccccc2)o1` (stereo not shown) [compound 61, Benzyl-[4-benzyl-2-(2-{4-[(4-chlorophenyl)-dimethylaminomethyl]-cyclohexyl}-1-diethylamino-ethyl)-oxazol-5-yl]-methylamine]: 76%; `COc1ccc(N2CCN(c3oc(C(CC4CCC(C(c5cccs5)N(C)C)CC4)N4CCc5ccccc5C4)nc3Cc3ccccc3)CC2)cc1` (stereo not shown) [compound 166, ({4-[2-{4-benzyl-5-[4-(4-methoxy-phenyl)-piperazin-1-yl]-oxazol-2-yl}-2-(3,4-dihydro-1H-isoquinolin-2-yl)-ethyl]-cyclohexyl}-thiophen-2-yl-methyl)-dimethylamine]: 78%.
Still for that read-out and setting: in the case of `CCN(CC)c1oc(C(CC2CCC(C(c3ccc(Cl)cc3)N(C)C)CC2)N2CCCCC2)nc1Cc1ccccc1` (stereo not shown) [compound 87, [4-benzyl-2-(2-{4-[(4-chlorophenyl)-dimethylaminomethyl]-cyclohexyl}-1-piperidin-1-yl-ethyl)-oxazol-5-yl]-diethylamine] it was 64%; in that of `COc1ccc(N2CCN(c3oc(C(C4CCC(C(c5cccs5)N(C)C)CC4)N4CCc5ccccc5C4)nc3Cc3ccccc3)CC2)cc1` (stereo not shown) [compound 147, ({4-[{4-benzyl-5-[4-(4-methoxyphenyl)-piperazin-1-yl]-oxazol-2-yl}-(3,4-dihydro-1H-isoquinolin-2-yl)-methyl]-cyclohexyl}-thiophen-2-yl-methyl)-dimethylamine], 91%.
As for `CN(Cc1ccccc1)c1oc(C(CC2CCC(C(c3cccs3)N(C)C)CC2)N2CCN(Cc3ccccc3)CC2)nc1Cc1ccccc1` (stereo not shown) [compound 84, Benzyl-(4-benzyl-2-{1-(4-benzyl-piperazin-1-yl)-2-[4-(dimethylamino-thiophen-2-yl-methyl)-cyclohexyl]-ethyl}-oxazol-5-yl)-methylamine], the inhibition at 1 µM is 88%.
Same read-out and setting: in the case of `CCN(CC)C(CC1CCC(C(c2ccc(F)cc2)N(C)C)CC1)c1nc(Cc2ccccc2)c(N2CC(C)CC(C)C2)o1` (stereo not shown) [compound 96, (1-[4-benzyl-5-(3,5-dimethylpiperidin-1-yl)-oxazol-2-yl]-2-{4-[dimethylamino-(4-fluorophenyl)-methyl]-cyclohexyl}-ethyl)-diethylamine] it was 80%; in that of `CN(C)C(c1cccs1)C1CCC(C(c2nc(Cc3ccccc3)c(N3CCCC3)o2)N2CCOCC2)CC1` (stereo not shown) [compound 138, ({4-[(4-benzyl-5-pyrrolidin-1-yl-oxazol-2-yl)-morpholin-4-yl-methyl]-cyclohexyl}-thiophen-2-yl-methyl)-dimethylamine], 91%.
Same read-out and setting: next, `CC1CCN(c2oc(C(CC3CCC(C(c4ccc(Cl)cc4)N(C)C)CC3)N3CCCCC3)nc2Cc2ccccc2)CC1` (stereo not shown) [compound 57, [(4-{2-[4-benzyl-5-(4-methylpiperidin-1-yl)-oxazol-2-yl]-2-piperidin-1-yl-ethyl}-cyclohexyl)-(4-chlorophenyl)-methyl]-dimethylamine]: 64%.
Regarding `CC1CCCN(c2oc(C(CC3CCC(C(c4cccs4)N(C)C)CC3)N3CCN(Cc4ccccc4)CC3)nc2Cc2ccccc2)C1` (stereo not shown) [compound 119, ({4-[2-[4-benzyl-5-(3-methylpiperidin-1-yl)-oxazol-2-yl]-2-(4-benzyl-piperazin-1-yl)-ethyl]-cyclohexyl}-thiophen-2-yl-methyl)-dimethylamine], the inhibition at 1 µM was 99%.
Turning to `COc1ccc(N2CCN(C(c3nc(Cc4ccccc4)c(N4CC(C)OC(C)C4)o3)C3CCC(C(c4ccc(Cl)cc4)N(C)C)CC3)CC2)cc1` (stereo not shown) [compound 136, [(4-{[4-benzyl-5-(2,6-dimethylmorpholin-4-yl)-oxazol-2-yl]-[4-(4-methoxy-phenyl)-piperazin-1-yl]-methyl}-cyclohexyl)-(4-chlorophenyl)-methyl]-dimethylamine], the inhibition at 1 µM was 62%.
For the compound `CCN(CC)C(c1nc(Cc2ccccc2)c(N2CCCC(C)C2)o1)C1CCC(C(c2cccs2)N(C)C)CC1` (stereo not shown) [compound 51, {[4-benzyl-5-(3-methylpiperidin-1-yl)-oxazol-2-yl]-[4-(dimethylamino-thiophen-2-yl-methyl)-cyclohexyl]-methyl}-diethylamine], the inhibition at 1 µM amounted to 100%.
Take `CN(CCc1ccccc1)c1oc(C(C2CCC(C(c3cccs3)N(C)C)CC2)N2CCCCC2)nc1Cc1ccccc1` (stereo not shown) [compound 46, (4-benzyl-2-{[4-(dimethylaminothiophen-2-yl-methyl)-cyclohexyl]-piperidin-1-yl-methyl}-oxazol-5-yl)-methylphenethylamine]: the inhibition at 1 µM turned out to be 80%.
On the same count and under the same terms, next, `CCN(CC)C(c1nc(Cc2ccccc2)c(N(C)Cc2ccccc2)o1)C1CCC(C(c2ccc(Cl)cc2)N(C)C)CC1` (stereo not shown) [compound 21, Benzyl-[4-benzyl-2-({4-[(4-chlorophenyl)-dimethylaminomethyl]-cyclohexyl}-diethylaminomethyl)-oxazol-5-yl]-methylamine]: 72%.
